# Experimental data as given in patent US20130090377A1, “COMPOSITION COMPRISING COUMESTROL OR A BEAN EXTRACT CONTAINING COUMESTROL” (AMOREPACIFIC CORPORATION, priority 2010, published 2013).
# Legend:
# [1] = test system: C2C12 muscle cells; assay: Quantity of mitochondria in cells by fluorescence after MitoTracker Green staining; assay type: cell-based, mouse; details: coumestrol-treated C2C12 muscle cells, FIG. 3
# Method: (§1) C2C12 muscle cells derived from mouse (mouse myoblasts, ATCC) were differentiated for a week and then treated with […] coumestrol for 24 hours. Then, the expression of mitochondria-associated genes was confirmed at the protein level by western blotting. The tested genes were PGC1 which induces mitochondria biosynthesis and NDUFA9 and ATP5a which are proteins that constitute the mitochondrial electron transport chain.
# Also, the quantity of mitochondria in cells was measured by fluorescence after staining with MitoTracker Green (Invitrogen).
# [2] = biological target: T1, SIRT1 (Homo sapiens, UniProt Q96EB6); assay: SIRT1 activity assay kit (Biomol), SIRT1 activating effect; assay type: biochemical; details: FIG. 1
# T1 construct: Biomol
# T1 sequence (Q96EB6 1-747): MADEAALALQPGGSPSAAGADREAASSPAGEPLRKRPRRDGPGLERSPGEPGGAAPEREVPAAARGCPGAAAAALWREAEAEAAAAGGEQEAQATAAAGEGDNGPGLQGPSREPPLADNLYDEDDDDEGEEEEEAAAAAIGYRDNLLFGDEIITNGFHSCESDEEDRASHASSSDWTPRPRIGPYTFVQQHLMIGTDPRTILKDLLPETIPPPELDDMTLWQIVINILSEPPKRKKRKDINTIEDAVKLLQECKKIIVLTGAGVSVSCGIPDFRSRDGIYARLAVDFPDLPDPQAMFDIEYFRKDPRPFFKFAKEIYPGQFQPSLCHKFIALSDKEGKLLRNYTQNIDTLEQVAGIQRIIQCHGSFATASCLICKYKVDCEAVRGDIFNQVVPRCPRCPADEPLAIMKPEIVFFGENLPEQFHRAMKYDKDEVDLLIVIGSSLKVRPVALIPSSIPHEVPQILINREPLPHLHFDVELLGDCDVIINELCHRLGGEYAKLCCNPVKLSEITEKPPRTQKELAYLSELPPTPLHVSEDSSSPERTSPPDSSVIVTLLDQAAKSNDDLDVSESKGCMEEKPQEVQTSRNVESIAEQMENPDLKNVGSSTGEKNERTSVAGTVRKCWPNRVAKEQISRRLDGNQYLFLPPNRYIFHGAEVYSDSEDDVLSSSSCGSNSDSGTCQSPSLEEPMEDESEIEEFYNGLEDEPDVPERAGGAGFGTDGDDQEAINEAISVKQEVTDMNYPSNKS
# Method: It was tested whether coumestrol can activate SIRT1 using the SIRT1 activity assay kit (Biomol). Cells were treated with 10 μM coumestrol. 50 µM resveratrol (Res), which is known to activate SIRT1, was used as positive control and 1 mM nicotinamide (NAM), which is an inhibitor of SIRT1, was used as negative control.
# [3] = test system: C2C12 muscle cells; assay: Expression of mitochondria-associated genes at the protein level by western blotting in differentiated C2C12 muscle cells; assay type: cell-based, mouse; parameters: dose or concentration left out as unconfirmed; details: coumestrol for 24 hours, C2C12 differentiated for a week, FIG. 2
# Method: as §1
structure (smiles),measurement,setting,value
"O=c1oc2cc(O)ccc2c2oc3cc(O)ccc3c12 [coumestrol, 3,9-dihydroxy-6H-benzofuro(3,2-c)(1)benzopyran-6-one]",quantity of mitochondria in cells vs untreated group,[1],remarkable increase
same,SIRT1 activating effect compared with resveratrol (positive control),[2]; 10 μM coumestrol vs 50 µM resveratrol,comparable to that of resveratrol
same,SIRT1 activity relative to the untreated group,[2]; 10 μM coumestrol,increased
same,"expression of mitochondria-associated genes (PGC1, NDUFA9, ATP5a) at the protein level vs untreated group",[3],remarkable increase
